In the data set the test system is CCRIS mutagenicity, Ames/micronucleus/aberration tests. Nature of the data set: CCRIS mutagenicity studies. The note with it: Test System: AMES SALMONELLA TYPHIMURIUM
Where [1] appears, read: Strain/Indicator: TA97, Metabolic Activation: NONE, Method: PREINCUBATION
Where [2] appears, read: Strain/Indicator: TA98, Metabolic Activation: NONE, Method: PREINCUBATION
Setting [3] is: Strain/Indicator: TA100, Metabolic Activation: NONE, Method: PREINCUBATION
[4] abbreviates: Strain/Indicator: TA1535, Metabolic Activation: NONE, Method: PREINCUBATION
Where [5] appears, read: Strain/Indicator: TA98, Metabolic Activation: HAMSTER, LIVER, S-9, AROCLOR 1254 (10%), Method: PREINCUBATION
Setting [6] is: Strain/Indicator: TA98, Metabolic Activation: RAT, LIVER, S-9, AROCLOR 1254 (10%), Method: PREINCUBATION
[7] abbreviates: Strain/Indicator: TA100, Metabolic Activation: HAMSTER, LIVER, S-9, AROCLOR 1254 (10%), Method: PREINCUBATION
Setting [8] is: Strain/Indicator: TA100, Metabolic Activation: RAT, LIVER, S-9, AROCLOR 1254 (10%), Method: PREINCUBATION
The mark [9] stands for this setting: Strain/Indicator: TA1535, Metabolic Activation: HAMSTER, LIVER, S-9, AROCLOR 1254 (10%), Method: PREINCUBATION
The mark [10] stands for this setting: Strain/Indicator: TA1535, Metabolic Activation: RAT, LIVER, S-9, AROCLOR 1254 (10%), Method: PREINCUBATION

Activity calls are given as the source filed them. The rule behind the calls is not given here.

Here are results for six molecules from PubChem BioAssay AID1259407 (Chemical Carcinogenesis Research Information System (CCRIS), 2018).

Turning to `N=C1C=CC2=CC(S(=O)(=O)O)=CC(=O)C2=C1NNc1ccc(-c2ccc(N=Nc3cc(S(=O)(=O)O)c4ccccc4c3N)cc2)cc1`, under “Strain/Indicator: TA98, Metabolic Activation: HAMSTER, LIVER, S-9, Method: PREINCUBATION (PRIVAL METHOD)”, the mutagenic call is “active; positive”.
Turning to `N#CCCCCC#N`, the mutagenic call is, setting by setting: (Strain/Indicator: TA97, Metabolic Activation: HAMSTER, LIVER, S-9, AROCLOR 1254 (10 OR 30%), Method: PREINCUBATION) “inactive; negative”; under setting [1], “inactive; negative”; (Strain/Indicator: TA97, Metabolic Activation: RAT, LIVER, S-9, AROCLOR 1254 (10 OR 30%), Method: PREINCUBATION) “inactive; negative”; (Strain/Indicator: TA98, Metabolic Activation: HAMSTER, LIVER, S-9, AROCLOR 1254 (10 OR 30%), Method: PREINCUBATION) “inactive; negative”; under setting [2], “inactive; negative”; (Strain/Indicator: TA98, Metabolic Activation: RAT, LIVER, S-9, AROCLOR 1254 (10 OR 30%), Method: PREINCUBATION) “inactive; negative”. For the same molecule, the mutagenic call is “inactive; negative” (Strain/Indicator: TA100, Metabolic Activation: HAMSTER, LIVER, S-9, AROCLOR 1254 (10 OR 30%), Method: PREINCUBATION); “inactive; negative” under setting [3]; “inactive; negative” (Strain/Indicator: TA100, Metabolic Activation: RAT, LIVER, S-9, AROCLOR 1254 (10 OR 30%), Method: PREINCUBATION); “inactive; negative” (Strain/Indicator: TA1535, Metabolic Activation: HAMSTER, LIVER, S-9, AROCLOR 1254 (10 OR 30%), Method: PREINCUBATION); “inactive; negative” under setting [4]; “inactive; negative” (Strain/Indicator: TA1535, Metabolic Activation: RAT, LIVER, S-9, AROCLOR 1254 (10 OR 30%), Method: PREINCUBATION).
As for `O=NN(c1ccc([N+](=O)[O-])cc1)C1OC[C@@H](O)[C@H](O)[C@H]1O` (some centres not stated), the mutagenic call (Strain/Indicator: TA100, Metabolic Activation: NONE, Method: STANDARD PLATE) was “active; positive”.
For the molecule `CCCCCCCCC/C=C/CC1CC(=O)OC1=O` (configuration not stated), the mutagenic call is “inactive; negative” under setting [5]; “inactive; negative” under setting [2]; “inactive; negative” under setting [6]; “inactive; negative” under setting [7]; “inactive; negative” under setting [3]; “inactive; negative” under setting [8]. For the same molecule, the mutagenic call runs as follows: under setting [9], “inactive; negative”; under setting [4], “inactive; negative”; under setting [10], “inactive; negative”; (Strain/Indicator: TA1537, Metabolic Activation: HAMSTER, LIVER, S-9, AROCLOR 1254 (10%), Method: PREINCUBATION) “inactive; negative”; (Strain/Indicator: TA1537, Metabolic Activation: NONE, Method: PREINCUBATION) “inactive; negative”; (Strain/Indicator: TA1537, Metabolic Activation: RAT, LIVER, S-9, AROCLOR 1254 (10%), Method: PREINCUBATION) “inactive; negative”.
For the molecule `Nc1nc2c([nH]c(=O)n2[C@@H]2O[C@H](CO)[C@@H](O)[C@H]2O)c(=O)[nH]1`, under setting [3], the mutagenic call was “inactive; negative”.
Regarding `CCCCC(CC)COCCC#N` (configuration not stated), the mutagenic call is “inactive; negative” (Strain/Indicator: TA97, Metabolic Activation: HAMSTER, LIVER, S-9, AROCLOR 1254 (10%), Method: PREINCUBATION); “inactive; negative” (Strain/Indicator: TA97, Metabolic Activation: HAMSTER, LIVER, S-9, AROCLOR 1254 (30%), Method: PREINCUBATION); “inactive; negative” under setting [1]; “inactive; negative” (Strain/Indicator: TA97, Metabolic Activation: RAT, LIVER, S-9, AROCLOR 1254 (10%), Method: PREINCUBATION); “inactive; negative” (Strain/Indicator: TA97, Metabolic Activation: RAT, LIVER, S-9, AROCLOR 1254 (30%), Method: PREINCUBATION); “inactive; negative” under setting [5]. In addition, the mutagenic call was “inactive; negative” (Strain/Indicator: TA98, Metabolic Activation: HAMSTER, LIVER, S-9, AROCLOR 1254 (30%), Method: PREINCUBATION); “inactive; negative” under setting [2]; “inactive; negative” under setting [6]; “inactive; negative” (Strain/Indicator: TA98, Metabolic Activation: RAT, LIVER, S-9, AROCLOR 1254 (30%), Method: PREINCUBATION); “inactive; negative” under setting [7]; “inactive; negative” (Strain/Indicator: TA100, Metabolic Activation: HAMSTER, LIVER, S-9, AROCLOR 1254 (30%), Method: PREINCUBATION). Besides, the mutagenic call was “inactive; negative” under setting [3]; “inactive; negative” under setting [8]; “inactive; negative” (Strain/Indicator: TA100, Metabolic Activation: RAT, LIVER, S-9, AROCLOR 1254 (30%), Method: PREINCUBATION); “inactive; negative” under setting [9]; “inactive; negative” (Strain/Indicator: TA1535, Metabolic Activation: HAMSTER, LIVER, S-9, AROCLOR 1254 (30%), Method: PREINCUBATION); “inactive; negative” under setting [4]. Moreover, the mutagenic call by setting is: under setting [10], “inactive; negative”; (Strain/Indicator: TA1535, Metabolic Activation: RAT, LIVER, S-9, AROCLOR 1254 (30%), Method: PREINCUBATION) “inactive; negative”.
